Measurements as given in patent US8912219B2, “Aryl sulfamide and sulfamate derivatives as RORc modulators” (Genentech, Inc., priority 2013, dated 2014).

Target: RORc ligand binding domain (Homo sapiens (Human), UniProt P51449)
Sequence (P51449 269-508): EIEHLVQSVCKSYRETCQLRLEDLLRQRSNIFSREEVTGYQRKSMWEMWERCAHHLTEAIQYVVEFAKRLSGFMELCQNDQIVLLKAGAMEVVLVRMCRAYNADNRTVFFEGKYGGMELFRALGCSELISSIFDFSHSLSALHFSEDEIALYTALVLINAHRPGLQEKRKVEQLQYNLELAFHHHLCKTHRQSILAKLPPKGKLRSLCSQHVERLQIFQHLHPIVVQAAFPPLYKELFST

Structure (SMILES) | IC50
CC(=O)N1CCN(c2ccc(CN(C3CCC3)S(=O)(=O)N(C)c3ccccc3)c(F)c2)CC1 [Compound 2, 1-(4-(4-acetylpiperazin-1-yl)-2-fluorobenzyl)-1-cyclobutyl-3-methyl-3-phenyl-sulfonamide] | 0.028 µM
CC(=O)N1CCN(c2ccc(CN(C3CCC3)S(=O)(=O)Oc3ccccc3)c(F)c2)CC1 [Compound 10, phenyl 4-(4-acetylpiperazin-1-yl)-2-fluorobenzyl(cyclobutyl)sulfamate] | 0.007 µM
CS(=O)(=O)N1CCC(Oc2ccc(N3CCN(Cc4ccc(F)cc4)S3(=O)=O)cc2)CC1 [Compound 3, 2-(4-fluorobenzyl)-5-(4-((1-(methylsulfonyl)piperidin-4-yl)oxy)phenyl)-1,2,5-thiadiazolidine 1,1-dioxide] | 6.42 µM
CC(C)CN(Cc1ccc(F)cc1)S(=O)(=O)Nc1ccc(OC2CCN(S(C)(=O)=O)CC2)cc1 [Compound 4, 1-(4-fluorobenzyl)-1-isobutyl-3-(4-((1-(methylsulfonyl)piperidin-4-yl)oxy)phenyl)-sulfamide] | 0.23 µM
